Patent US4883614A, “Phenyl substituted-2,4,6,8-nonatetraenoic acid” (Hoffman-La Roche Inc., priority 1986, dated 1989)
Where two headings read alike, the source gives them in different places. Each block holds one compound with its values, some of them ahead of it.

Tests used:
adjuvant arthritis = assay: chronic adjuvant arthritis test in rats (Table I); type: in vivo, male Charles River Lewis rats; conditions: for change in vivo at 95 µmol/kg / change in vivo at 3 µmol/kg: Rattus norvegicus, 552 h; for change in vivo at 3 µmol/kg: oral 3 μMol/Kg
Protocol: That the compounds of this invention are effective anti-arthritic agents can be seen from the results obtained when these compounds are administered to rats in accordance with the chronic adjuvant arthritis test system disclosed in Billingham and Davies "Handbook of Experimental Pharmacology" (editors J.R. Vane and S.H. Ferreira) Vol. 50/II, pg. 108-144, Springer-Verlag, Berlin, 1979).
In this procedure, adjuvant arthritis was induced by the subplantar injection on day o of 0.05 ml of adjuvant [a suspension of heat-killed, dessicated Mycobacterium butyricum, 0.5% (w/v), in heavy mineral oil containing 0.2% digitonin] into the right hind paw of male Charles River Lewis rats (120-140g) that were housed individually and given food and water ad lib. paw volumes (both hind paws) were measured immediately after injection of the adjuvant. paw Volumes were also measured, to follow the development of inflammation-induced swelling in the arthritic paws, at intervals of 3 to 7 days by immersion of the paw to the level of the lateral malleolus in a mercury plethysmograph.
Drugs were administered once a day (starting on the day of adjuvant injection) by […] using Tween 80 (polyoxyethylene sorbitan mono-oleate) at a dose of 0.25 ml/100 g body Weight as the vehicle. Arthritic control rats received daily doses of the vehicle only. On day 23-25, the rats were sacrificed, plasma collected and plasma fibrinogen levels determined (ammonium sulfate turbidimetric method) as described by Exner et al., Amer. J. Clin Path, 71:521-527 (1979). Anti-inflammatory activity of the test drugs were determined by comparing the extent of paw swelling (paw volume on a particular day, i.e. day four to day twenty-five, minus the paw volume on day 0) in drug-treated arthritic rats with the extent of paw swelling in the vehicle-treated arthritic rats. Drug induced decreases in the level of plasma fibrinogen. an acute phase protein that is elevated in the plasma of rats with adjuvant-induced arthritis, were also used to quantitate the anti-inflammatory activity.

[1] = system: type II collagen arthritis; assay: established type II collagen arthritis (Table IV); type: in vivo, male and female Alderley Park Strain 1 rats; conditions: 100 mg.kg^-1 p.o.; male and female rats
Protocol: In all tests, Compound A and the other retinoids tested concurrently were formulated in arachis oil containing 0.05% propylgallate as anti-oxidant. The dose volumes used were 5 ml.kg^-1 for rats and 10 ml.kg^-1 for mice. Controls were dosed with the appropriate volume of arachis oil vehicle.
Animals -- Male and female Alderley Park Strain 1 rats.
Materials -- Type 2 collagen (prepared from bovine nasal septum cartilage), Freunds incomplete adjuvant (Difco).
Method -- Rats were sensitized to type 2 collagen by injecting them intradermally with 1 ml. of a water in oil emulsion consisting of equal parts of a 1 mg.ml^-1 solution of type 2 collagen in 0.45M NaCl, 0.02M Tris, PH 7.4 and Freunds incomplete adjuvant. Rats developing arthritis were allocated on day 15 post sensitization to a control arachis oil treated group (6 male, 4 female) or to the Compound A treated group (6 male, 5 female). Hind paw volume measurements were taken to ensure even distribution of rats between groups. An overnight collection of urine was made on days 15/16 and dosing commenced on day 16. […] Compound A was dosed at 100 mg.kg^-1 p.o. On days 19/20 a second overnight collection of urine was made. […] On day 20 a second hind paw measurement was taken. Rats were then anaesthetised with sodium pentobarbitone, bled, killed and X-rays taken of hind and forepaws. Rats were dosed on days 16-19 inclusive (4 doses).

[2] = system: 4 hr carrageenan pleurisy; assay: 4 hr carrageenan pleurisy, non-immune inflammation (Table V); type: in vivo, female Alderley Park Strain 1 rats; conditions: 10 days
Protocol: Animals -- Female Alderley Park Strain 1 rats weighing 170-205 g. at the start of the experiment were used.
Materials -- Lambda -carrageenan. Prepared as a solution in saline and sterilized by autoclaving.
Method -- Compound A was administered orally to groups of 8 rats once daily for 10 days at doses of 10, 30 and 100 mg.kg^-1. Control animals received the vehicle. One hour after the last dose the animals were anesthetised with methohexitone (Brietal, 50 mg.kg-1) and 0.2 ml of 1% lambda carrageenan was injected into the pleural cavity. Four hours later the animals were killed with an overdose of pentobarbitone (Sagatal), the pleural exudate was collected and the pleural cavity was washed out with 2 ml of phosphate-buffered saline (PB$-A, Oxoid). The exudate volume was recorded and cell counts were determined using an automatic cell counter (Coulter). Differential cell counts were performed on exudate smears stained with Giemsa stain in order to determine separately the numbers of polymorphonuclear leucocytes (PMN) and mononuclear cells (MN).
Immediately after recovery of the pleural exudates the tibiae of the animals were excised and their breaking strains were determined.
The body weights of the animals were recorded daily. Statistical analyses were performed using Student's two-tailed t test.
In the following table the dose is in mg per kg per day.

[3] = system: delayed hypersensitivity to methylated bovine serum albumin (MBSA); assay: MBSA delayed hypersensitivity test (Table II)
Protocol: The dose volumes used were 5 ml.kg^-1 for rats and 10 ml.kg^-1 for mice. Controls were dosed with the appropriate volume of arachis oil vehicle.
Animals -- Male and female MFI mice substrain E33. Initial weight approximately 25 gm.
Materials -- Methylated bovine serum albumin (MBSA) (Sigma) Freunds complete adjuvant (Difco)
Method -- Groups of 10 mice were sensitized (day 0) by injecting intradermally at two abdominal. sites 0.05 ml. of a water in oil emulsion of MBSA and Freunds complete adjuvant. On day 9 the mice were challenged by injecting 20 l of a 1% MBSA solution to one paw and 20 l of water into the contralateral paw. Paw volumes were measured 24 hours later by mercury displacement plethysmography. The means percentage increase in paw volume of the MBSA-challenged paw compared with the water challenged paw was calculated for each treatment group. Dosing with vehicle and retinold commenced on day 0 and finished on day 9.

[4] = system: adjuvant arthritis in the rat; assay: developing adjuvant arthritis in the rat (Table III); type: in vivo, AHH/R female rats (PVG derived); conditions: 15 mg.kg^-1 p.o.
Protocol: Animals--AHH/R Female rats (PVG derived with an initial weight range of 110 to 140 g. were used.
Materials--Adjuvant for injection. An homogenized suspension of heat killed M. tuberculosis (Human strains C, DT and PN), 5 mg.Ml^-1 in liquid Paraffin was Prepared.
Method Rats were randomly split into groups of five and adjuvant arthritis was induced by the sub-plantar injection of 0.1 ml of adjuvant susPension into the right hind paw of each rat. Test compounds were administered by intubation each morning commencing the day of adjuvant injection. Two groups of control rats were dosed with the vehicle as was a group of three normal rats included for comparative purposes. Dosing was carried out daily until the end of the test on day 15 except for the first weekend (days 5 & 6). Treatment groups are shown in Table III and include etretinate as standard retinoid.
Measurements of right hind paw volume were made initially and on days 2 and 4 after and adjufant injection (primary phase). Right and left hind paw volume were then measured on day 8 and every two or three days until the end of the experiment on day 15 (secondary phase). At this time the mobility of each ankle joint and the
incidence and severity of secondary lesions on nose, ears, forepaws, left hind paw and tail were also assessed in terms of degrees of flexion possible and by using an arbitrary scoring system, respectively.
The time course curves for the injected paws were integrated from days 0 to 4 to reflect primary swelling and from days 8 to 15 (secondary swelling). The secondary swelling in the non-injected paw was integrated similarly from days 8 to 15. Calculations were carried out using a specific computer program which computed mean ± se for each integrated area. The significance of differences from controls was determined by Student s t test (2 tailed) and percentage reductions from control areas were calculated. Percentage improvements in joint mobility and percentage reductions in lesion score were also determined. In the latter case the Wilcoxon rank sum test (2 tailed) was used to express the difference from the control score using raw data. Mean body weight change in each group was recorded.

SMILES: CCCCCCCCNc1ccccc1/C=C/C(C)=C/C=C/C(C)=C/C(=O)OCC
Body Weight Gain (adjuvant arthritis; oral 75 μMol/Kg): +24 g

SMILES: CC(/C=C/c1ccccc1OCCCCCCCCO)=C\C=C\C(C)=C\C(=O)O
change in vivo at 95 µmol/kg (adjuvant arthritis; oral 95 μMol/Kg, read-out: % Reduction in Paw Volume On day 23, Left): -49%
change in vivo at 95 µmol/kg (adjuvant arthritis; oral 95 μMol/Kg, read-out: % Reduction in Paw Volume On day 23, Right): -37%
Body Weight Gain (adjuvant arthritis; oral 95 μMol/Kg): +27 g
Plasma fibrinogen % change (reduction) (adjuvant arthritis; oral 95 μMol/Kg): -35%

SMILES: CCCCCCCCCOc1cccc(F)c1/C=C/C(C)=C/C=C/C(C)=C/C(=O)O
Body Weight Gain (adjuvant arthritis; oral 75 μMol/Kg): +46 g

SMILES: CC1=C(/C=C/C(C)=C/C=C/C(C)=C\C(=O)O)C(C)(C)CCC1 [reference compound]
Body Weight Gain (adjuvant arthritis; oral 60 μMol/Kg): -7 g

SMILES: CCCCCCCCCOc1cccc(Cl)c1/C=C/C(C)=C/C=C/C(C)=C/C(=O)O
Body Weight Gain (adjuvant arthritis; oral 75 μMol/Kg): +35 g

weight during treatment (in words) [1]: Both male and female rats lost weight
Tibial Breaking Strain (Right + Left) % change ([2]; 10 mg/kg/day p.o.): -3.4%
Tibial Breaking Strain (Right + Left) Mean ([2]; 10 mg/kg/day p.o.): 6.5 kg
Tibial Breaking Strain (Right + Left) % change ([2]; 30 mg/kg/day p.o.): +1.5%
Tibial Breaking Strain (Right + Left) Mean ([2]; 30 mg/kg/day p.o.): 6.8 kg
Tibial Breaking Strain (Right + Left) % change ([2]; 100 mg/kg/day p.o.): -0.3%
Tibial Breaking Strain (Right + Left) Mean ([2]; 100 mg/kg/day p.o.): 6.7 kg
SMILES: CCCCCCCCCOc1ccccc1/C=C/C(C)=C/C=C/C(C)=C/C(=O)O [Compound A, All(E)-9-[2-(nonyloxy)phenyl]-3,7-dimethyl-2,4,6,8-nonatetraenoic acid]
Mean body weight ([3]; 10 mg.kg^-1 oral, female (F)): -0.2 g
Mean body weight ([3]; 10 mg.kg^-1 oral, male (M)): 3.3 g
Mean body weight ([3]; 30 mg.kg^-1 oral, female (F)): 0.5 g
Mean body weight ([3]; 30 mg.kg^-1 oral, male (M)): 2.8 g
Mean body weight ([3]; 100 mg.kg^-1 oral, female (F)): -0.2 g
Mean body weight ([3]; 100 mg.kg^-1 oral, male (M)): 3.3 g

SMILES: CCCCCCCCCOc1ccc(OC)cc1/C=C/C(C)=C/C=C/C(C)=C/C(=O)O
Body Weight Gain (adjuvant arthritis; oral 75 μMol/Kg): +27 g

SMILES: CCCCCCCCCOc1ccccc1/C=C/C(C)=C/C=C/C(C)=C/C(=O)O [drawing 6]
Body Weight Gain (adjuvant arthritis; oral 76 μMol/Kg): +27 g

SMILES: COc1ccc2c(c1)c(CC(=O)O)c(C)n2C(=O)c1ccc(Cl)cc1 [Indomethacin, reference compound]
change in vivo at 3 µmol/kg (adjuvant arthritis; read-out: % Reduction in Paw Volume On day 23, Left): -67%
change in vivo at 3 µmol/kg (adjuvant arthritis; read-out: % Reduction in Paw Volume On day 23, Right): -66%

SMILES: CCOC(=O)/C=C(C)/C=C/C=C(C)/C=C/c1c(C)cc(OC)c(C)c1C [Etretinate, etretinate]
% (cf. arachis oil control) ([3]; 10 mg.kg^-1 oral, 10 doses): 46%
Mean body weight ([3]; 10 mg.kg^-1 oral, female (F)): -2.0 g
Mean body weight ([3]; 10 mg.kg^-1 oral, male (M)): -0.8 g
Joint Mobility (% INC) [4]: 50%
Lesion Score (% RDN) [4]: 56%
% reduction of paw swelling, Secondary (left) ([4]; days 8-15): 30%
% reduction of paw swelling, Secondary (right) ([4]; days 8-15): 67%
